Data set [1] has as its system MCF7 cells. Nature of the data set: Dose-response curves on proliferating and Tamoxifen-induced senescent MCF7 (Incucyte). It is filed as cell-based, Homo sapiens. An excerpt:
IMR90 and WI38 lung fibroblasts were purchased from ECACC‐Merck. Human bone marrow (BM)‐derived mesenchymal stromal cells (MSCs) were purchased from Lonza. Human umbilical vein endothelial cells (HUVECs) are primary cells obtained from a pool of donors purchased from Clonetics (Lonza). Murine ear fibroblasts (MearFs) were obtained from C57BL/6J mice maintained in the INRCA “Specific Pathogen Free” (SPF) animal facility. MCF7 breast cancer cells were purchased from ATCC. For dose–response curves, IMR90 and WI38 were induced to senescence through replicative passages; MSCs, HUVECs, and MearFs senescence was induced with Doxorubicin; MCF7 senescence was induced with 4‐Hydroxytamoxifen (Lee et al. [2014]). The EC50 was calculated using GraphPad Prism 10 software. All treatment specifications are reported in the extended section.
MCF7 cell line (ATCC; HTB-22, Homo sapiens, breast cancer) was purchased from ATCC; cells were grown in MEM medium (Corning, New York, USA, #15-010-CVR) supplemented with 10% FBS (Gibco, Invitrogen, Carlsbad, CA, USA, #10270106), 1% glutamine (Corning #25005-CI), 1% penicillin and streptomycin (Corning #30002-CI). Cells were incubated at 37 °C with 5% CO2. Senescent status induction: MCF7 were plated 24 h before the treatment with 4-Hydroxytamoxifen (TAM) 10 μM to induce the senescence described by (Lee et al. 2014). Control cultures were treated with equal volumes of 75% ethanol as the vehicle. The treatment with TAM lasts 96 h, after which the cells have been washed and treated with the senolytic drugs K5 10 µM for another 96 h. The treatment with the senolytic compounds has been renewed at 48 h. Cell mortality and vitality curves after treatment with K5 (10 μM, orange) or Vehicle (DMSO, grey) were monitored using the Incucyte live-cell Analysis system (Sartorius, Goettingen, Germany). The estimated Senolytic index (SI) was calculated as the ratio between the EC50 in proliferating cells and the EC50 in senescent cells, extrapolated using GraphPad Prism 10 software.

Data set [2] relates to Drosophila melanogaster. Nature of the data set: Drosophila melanogaster lifespan assay. The format is in vivo. On the procedure:
Experiments were carried out with wild‐type Canton‐S Drosophila melanogaster, originating (Stock #64349) from the Bloomington Drosophila Stock Centre (Indiana University). Flies were reared on Nutri‐Fly Bloomington Formulation food medium (Genesee Scientific). Vials containing only fresh food were alternated with vials containing food supplemented with K5. The number of living flies was counted every 2–3 days. Detailed protocols are reported in the extended section.
Drosophila melanogaster maintenance and lifespan assays. All experiments were carried out with wild-type Canton-S Drosophila melanogaster. Canton-S flies originated (Stock #64349) from the Bloomington Drosophila Stock Centre (Indiana University, Bloomington, IN, USA). Flies were reared on Nutri-Fly Bloomington Formulation food medium (Genesee Scientific, El Cajon, CA, USA) prepared using 176 g of Nutri-Fly per liter of distilled H2O. After cooling to 70°C, 4.8 mL of propionic acid (Merck KGaA, Darmstadt, Germany) per liter of food was added. Flies were maintained at constant temperature (25.0 ± 0.2°C) with 60% relative humidity on a 12 h:12 h 300 lux light-dark cycle generated by a 4000°K LED lamp (Fridge 1.5W, Ecoman Italia S.r.l., Frascati, Italy).
For lifespan assays, newly enclosed Drosophila melanogaster (1 to 2 days old) were collected and placed separately in vials (each containing 10 male and 10 female flies). Two experiments were performed. In the first experiment, 300 flies were randomly divided into three groups (CTRL, K5 10 µg/mL, and K5 100 µg/mL). Vials containing only fresh food (Nutri-Fly Bloomington Formulation food medium) were alternated 3 times a week with vials containing food supplemented with K5. The K5 was dissolved in DMSO and then diluted 1:10 in corn oil. 5 µL of corn oil (containing 0, 10 µg, or 100 µg of K5) was added to each mL of freshly prepared Nutri-Fly Bloomington Formulation food medium. In the second experiment, 900 flies were divided by sex into CTRL group and K5 10 µg/mL treated group. […] All experiments counted the number of living flies every 2–3 days.

A short description of data set [3]: Mouse plasma exposure after oral and intravenous administration, brain and kidney distribution. It is filed as in vivo, CD1 mouse. The following applies: for Kp: CD1, mouse, relative to plasma; for half-life: read-out: T ½ in plasma. As to the method:
APHAD S.r.l (Buccinasco, MI, Italy) performed all evaluations. Detailed protocols are reported in the extended methods section.
Determination of the mouse plasma exposure of K5 after oral […] and intravenous (IV) administration. Determination of K5 distribution in brain and kidney after IV administration. Weighed tissues were homogenized with a Precellys Evolution Homogenizer 1g/5mL of 20 mM ammonium formate buffer pH 6.5 using 3 cycles 25 sec at a speed of 7600 rpm. Plasma or tissue was added to ACN containing Verapamil as Internal standard (0.1 µM) in a […]. Samples were shaken for 10 min at 300 rpm at RT and centrifuged for 15 min at 10°C at 4700 rpm. Working solutions (WS) for the calibration curves and QC samples were prepared by diluting ACN in the range 10-20000ng/mL range. Verapamil was diluted in ACN to reach the final concentration of 0.1 µM (WS_IS). Samples were analyzed on an Acquity UPLC (Waters) coupled with an API 3200 Triple Quadrupole ABSciex. Non-compartmental analysis was applied, and the following pharmacokinetic (PK) parameters were evaluated for each subject or group of subjects: maximum plasma concentration (Cmax), plasma concentration at last timepoint (Clast), time of maximum plasma concentration (Tmax), AUC from time zero to the time of the last quantifiable plasma concentration (AUC0-last), AUC from time zero extrapolated to infinity (AUCinf), mean residence time (MRT), half-life (T½). AUCs were calculated using a linear trapezoidal rule, and a uniform weight was performed as the first general approach. Graphical concentration-time curves are produced after Log transformation (PK Solver 2.0, Excel 2007 Microsoft add-in). The ke was estimated from the terminal part of the log-concentration time plot, which included at least three data points excluding the Cmax. If the terminal phase regression based on R2 was less than 0.85, then the T½ and the AUC0-inf were not reported.

Where [4] appears, read: plasma, oral 30 mg/kg, CD1 mouse.

The structures appear in SMILES notation. Read-outs that look alike come from different tables or passages of the source.

For `Cc1ccccc1-n1c(=O)n(Cc2ccccc2)c(=O)c2[nH]cnc21` [Compound K5, 1-benzyl-3-(2-methylphenyl)-7H-purine-2,6-dione], the EC50 (in general, the concentration needed to bring the measured effect to its halfway point) was 167 µM in data set [1] (Homo sapiens, MCF7, 96 h, MCF7, K5 96 h, read-out: EC50 proliferating cells); 24.4 µM in data set [1] (Homo sapiens, MCF7, 96 h, MCF7, TAM 10 μM 96 h, then K5 96 h, read-out: EC50 senescent cells); 167 µM in data set [1] (MCF7, K5 96 h, read-out: EC50 proliferating cells); 24 µM in data set [1] (MCF7, TAM 10 μM 96 h, then K5 96 h, read-out: EC50 senescent cells). In data set [1] (MCF7, 4-hydroxy-tamoxifen), the “Senolytic evidence (no, partly/yes)” value is listed as “Yes”. In data set [1] (MCF7, SI = EC50 in proliferating cells/EC50 senescent cells), the “Senolytic index (estimated)” value was 7. Also, in data set [2] (K5 10 μg/mL and 100 μg/mL, 100 flies per group, p = 0.034), the “effect on lifespan, preliminary treatment” value is listed as “significant overall difference in lifespan”. The “increase of average lifespan compared to controls” value in data set [2] (K5 10 μg/mL in food from day 20, n = 884) stood at 6.63%. Further, in data set [2] (K5 10 μg/mL in food from day 20, n = 884, controls 47.54 days ± 0.74 SE), the “average lifespan of treated flies” value is reported as 50.69 days. For the same compound, the Kp in data set [3] (brain, IV 5 mg/kg, read-out: distribution in the brain) was found to be 0.35; in data set [3] (kidney, IV 5 mg/kg, read-out: distribution in the kidney) it was 1.31. Besides, in data set [3] (IV 5 mg/kg, CD1 mouse), the distribution volume result was “high”. The “time of Cmax” value in data set [3] (oral 30 mg/kg, CD1 mouse) came out at 10 min. The compound also displayed a clearance in data set [3] (plasma, IV 5 mg/kg, CD1 mouse) of 38 mL/min/kg. The half-life in data set [3] (plasma, IV 5 mg/kg, CD1 mouse) was 0.217 h; in data set [3] (setting [4]), around 5 h. Further, in data set [3] (plasma, oral 30 mg/kg vs IV 5 mg/kg, CD1 mouse), the bioavailability (in general, the share of a dose that reaches the circulation, judged against a reference dose that is usually intravenous) turned out to be 54%. Also, in data set [3] (setting [4]), the Cmax (commonly the highest concentration seen after dosing) came to 2800 ng/mL. For the same compound, the MRT (commonly the average time that molecules of a dose stay in the body) in data set [3] (plasma, oral 30 mg/kg, CD1 mouse, read-out: mean residence time (MRT) (converted)) was around 5 h.

(Values after paper PMC12266748, “A Xanthine Derivative With Novel Heat Shock Protein 90‐Alpha Inhibitory and Senolytic Properties” (Aging Cell, 2025).)
